Several values for one entry are separate records, joined by “and”; a condition that tells them apart may be missing. Equal entries are not always repeated.
Tested on: BT-474
Test: normalised viability (% of control), CellTiter-Blue; higher = more viable cells (about 100 = DMSO control)
Settings: 100 nM; incubation time: 72 h
Description: (§1)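 DSRT, CellTiter-Blue viability, 72 h incubation. Signal is normalised to DMSO and benzethonium chloride controls. Value is the normalised response at dose 3.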

First: Cc1cc(Nc2cc(CN3CCOCC3)c3nc(C)c(Cc4ccc(Cl)cc4F)n3n2)n[nH]1
Second: Nc1cc(C(F)(F)F)c(-c2cc(N3CCOCC3)nc(N3CCOCC3)n2)cn1 [BKM-120]
The normalised viability of the first is lower: 102% for the first, 115% for the second.

Going from N#Cc1ccc(COC[C@H]2O[C@@H](n3c(NCc4ccc(Cl)c(Cl)c4)nc4c(N)ncnc43)[C@H](O)[C@@H]2O)cc1 to COc1cc(OC2CCN(C)CC2)ccc1Nc1ncc2c(n1)n(C1CCCC1)c(=O)n2C [AZ 3146], the normalised viability falls from 123% to 113%.

Going from CN(C)c1nc(N(C)C)nc(N(C)C)n1 [Altretamine] to COC(=O)c1ccc2c(c1)NC(=O)/C2=C(\Nc1ccc(N(C)C(=O)CN2CCN(C)CC2)cc1)c1ccccc1 [BIBF 1120], the normalised viability rises from 117% to 130%.

In the case of COc1cc2ncnc(Nc3ccc(F)c(Cl)c3)c2cc1OCCCN1CCOCC1 [Gefitinib], the normalised viability is reported as 92.3% and 101%.
For CCc1c2c(nc3ccc(OC(=O)N4CCC(N5CCCCC5)CC4)cc13)-c1cc3c(c(=O)n1C2)COC(=O)[C@]3(O)CC [Irinotecan], the normalised viability was 110% and 106%.

Tested on: BT-549
Test: as above
Settings: 100 nM; incubation time: 72 h
Description: as §1

Going from Cc1cc(Nc2cc(CN3CCOCC3)c3nc(C)c(Cc4ccc(Cl)cc4F)n3n2)n[nH]1 to Nc1cc(C(F)(F)F)c(-c2cc(N3CCOCC3)nc(N3CCOCC3)n2)cn1 [BKM-120], the normalised viability rises from 93.5% to 96.8%.

Compared with N#Cc1ccc(COC[C@H]2O[C@@H](n3c(NCc4ccc(Cl)c(Cl)c4)nc4c(N)ncnc43)[C@H](O)[C@@H]2O)cc1, COc1cc(OC2CCN(C)CC2)ccc1Nc1ncc2c(n1)n(C1CCCC1)c(=O)n2C [AZ 3146] is lower in normalised viability: 95.2% for the first, 85% for the second.

Going from CN(C)c1nc(N(C)C)nc(N(C)C)n1 [Altretamine] to COC(=O)c1ccc2c(c1)NC(=O)/C2=C(\Nc1ccc(N(C)C(=O)CN2CCN(C)CC2)cc1)c1ccccc1 [BIBF 1120], the normalised viability rises from 84.4% to 111%.

COc1cc2ncnc(Nc3ccc(F)c(Cl)c3)c2cc1OCCCN1CCOCC1 [Gefitinib] gave a normalised viability of 108%.
In the case of CCc1c2c(nc3ccc(OC(=O)N4CCC(N5CCCCC5)CC4)cc13)-c1cc3c(c(=O)n1C2)COC(=O)[C@]3(O)CC [Irinotecan], the normalised viability is reported as 91.5% and 90%.

Tested on: CAL-120
Test: as above
Settings: 100 nM; incubation time: 72 h
Description: as §1

Compared with Cc1cc(Nc2cc(CN3CCOCC3)c3nc(C)c(Cc4ccc(Cl)cc4F)n3n2)n[nH]1, Nc1cc(C(F)(F)F)c(-c2cc(N3CCOCC3)nc(N3CCOCC3)n2)cn1 [BKM-120] is higher in normalised viability: 74.5% for the first, 81.3% for the second.

Compared with N#Cc1ccc(COC[C@H]2O[C@@H](n3c(NCc4ccc(Cl)c(Cl)c4)nc4c(N)ncnc43)[C@H](O)[C@@H]2O)cc1, COc1cc(OC2CCN(C)CC2)ccc1Nc1ncc2c(n1)n(C1CCCC1)c(=O)n2C [AZ 3146] is higher in normalised viability: 106% for the first, 121% for the second.

First: CN(C)c1nc(N(C)C)nc(N(C)C)n1 [Altretamine]
Second: COC(=O)c1ccc2c(c1)NC(=O)/C2=C(\Nc1ccc(N(C)C(=O)CN2CCN(C)CC2)cc1)c1ccccc1 [BIBF 1120]
The normalised viability of the first is higher: 95.5% for the first, 95.4% for the second.

For COc1cc2ncnc(Nc3ccc(F)c(Cl)c3)c2cc1OCCCN1CCOCC1 [Gefitinib], the normalised viability was 81.9% and 92.8%.

Tested on: CAL-148
Test: as above
Settings: 10 nM; incubation time: 72 h
Description: as §1

Compared with Cc1cc(Nc2cc(CN3CCOCC3)c3nc(C)c(Cc4ccc(Cl)cc4F)n3n2)n[nH]1, Nc1cc(C(F)(F)F)c(-c2cc(N3CCOCC3)nc(N3CCOCC3)n2)cn1 [BKM-120] is lower in normalised viability: 97.9% for the first, 94.9% for the second.

Compared with N#Cc1ccc(COC[C@H]2O[C@@H](n3c(NCc4ccc(Cl)c(Cl)c4)nc4c(N)ncnc43)[C@H](O)[C@@H]2O)cc1, COc1cc(OC2CCN(C)CC2)ccc1Nc1ncc2c(n1)n(C1CCCC1)c(=O)n2C [AZ 3146] is higher in normalised viability: 103% for the first, 105% for the second.

Compared with CN(C)c1nc(N(C)C)nc(N(C)C)n1 [Altretamine], COC(=O)c1ccc2c(c1)NC(=O)/C2=C(\Nc1ccc(N(C)C(=O)CN2CCN(C)CC2)cc1)c1ccccc1 [BIBF 1120] is lower in normalised viability: 102% for the first, 100% for the second.

COc1cc2ncnc(Nc3ccc(F)c(Cl)c3)c2cc1OCCCN1CCOCC1 [Gefitinib] was tested, and the normalised viability was 84.8% and 87.6%.
With CCc1c2c(nc3ccc(OC(=O)N4CCC(N5CCCCC5)CC4)cc13)-c1cc3c(c(=O)n1C2)COC(=O)[C@]3(O)CC [Irinotecan] the normalised viability was 86% and 102%.

Tested on: CAL-51
Test: as above
Settings: 10 nM; incubation time: 72 h
Description: as §1

Going from Cc1cc(Nc2cc(CN3CCOCC3)c3nc(C)c(Cc4ccc(Cl)cc4F)n3n2)n[nH]1 to Nc1cc(C(F)(F)F)c(-c2cc(N3CCOCC3)nc(N3CCOCC3)n2)cn1 [BKM-120], the normalised viability rises from 95% to 98.5%.

Compared with N#Cc1ccc(COC[C@H]2O[C@@H](n3c(NCc4ccc(Cl)c(Cl)c4)nc4c(N)ncnc43)[C@H](O)[C@@H]2O)cc1, COc1cc(OC2CCN(C)CC2)ccc1Nc1ncc2c(n1)n(C1CCCC1)c(=O)n2C [AZ 3146] is lower in normalised viability: 109% for the first, 92.3% for the second.

First: CN(C)c1nc(N(C)C)nc(N(C)C)n1 [Altretamine]
Second: COC(=O)c1ccc2c(c1)NC(=O)/C2=C(\Nc1ccc(N(C)C(=O)CN2CCN(C)CC2)cc1)c1ccccc1 [BIBF 1120]
The normalised viability of the first is lower: 103% for the first, 104% for the second.

In the case of COc1cc2ncnc(Nc3ccc(F)c(Cl)c3)c2cc1OCCCN1CCOCC1 [Gefitinib], the normalised viability is reported as 107%.
